Measurements: PMC9304929, “The Cholesterol-Binding Sequence in Monomeric C-Reactive Protein Binds to the SARS-CoV-2 Spike Receptor-Binding Domain and Blocks Interaction With Angiotensin-Converting Enzyme 2” (Frontiers in Immunology, 2022)

Experiments:
[1] = tested on: spike RBD binding to cell surface ACE2 (A549 ACE2+/+ cells); experiment: Inhibition assay of spike-ACE2 interaction in cells (flow cytometry); format: cell-based, human; conditions: spike RBD 140 nM with ACE2+/+ cells, compound 4°C 30 min, n = 3
SARS-CoV-2 spike RBD [2] = experiment: Surface plasmon resonance (SPR) binding assay, spike RBD on CM5 chip
Description: (§1) Surface plasmon resonance (SPR) binding assays were performed using Biacore 8K instrument (Cytiva Life Sciences, Marlborough, MA, USA) in HEPES buffer containing 50 mM HEPES (pH 7.4), 150 mM NaCl, and 0.05% Tween-20 at 25°C. Spike-RBD was diluted to a concentration of 20 μg/mL with 10 mM sodium acetate (pH 5.0) and immobilized on a CM5 sensor chip (Cytiva Life Sciences, Marlborough, MA, USA). The mCRP samples were passed over the sensor chip at a flow rate of 30 μL/min with a concentration gradient from 3.125 nM to 100 nM. The association time was 180 s. A dissociation process was performed for 200 s at a flow rate of 30 μL/min. The dissociation constant (Kd) values were calculated by fitting result curves (subtracted from the control flow value) to a 1:1 Langmuir binding model with Biacore 8K evaluation software.

[3] = tested on: binding of the spike RBD to mCRP; design: species or system SARS-CoV-2
[4] = tested on: binding of mCRP to the spike RBD; experiment: Peptide competition assay (ELISA) of mCRP binding to spike RBD; design: species or system SARS-CoV-2; conditions: spike RBD-coated wells (2 μg/mL), mCRP at half-saturation concentration with synthetic peptide, mAb 3H12, n = 3
SARS-CoV-2 pseudovirus = conditions: 50 μM, preliminary results, data not shown
[5] = tested on: immortalized bone marrow-derived macrophages (iBMDM); experiment: Cytokine release from macrophages stimulated with CBS; format: cell-based; conditions: iBMDM stimulated with different concentrations of CBS, LPS positive control, n = 3
Description: To compare the inhibitory ability of the CBS peptide, different concentrations of the CBS peptide were added to the cell medium and incubated at 4°C for 30 min. After washing, the mixture was incubated for another 30 min with anti-Flag antibody, followed by incubation with a secondary antibody conjugated to Alexa Fluor 488. The inhibitory activity of the CBS peptide and positive control (lomefloxacin) was compared using flow cytometry with Alexa Fluor 488-conjugated spike RBD and phycoerythrin (PE)-conjugated ACE2. […] At the same time, we stimulated macrophages with the CBS peptide and detected the release of pro-inflammatory cytokines TNF-α and IL-6 to verify whether the CBS peptide itself is immunogenic.

[6] = cited from earlier work
[7] = tested on: binding of the spike RBD to ACE2; experiment: SPR competition of spike RBD binding to ACE2; design: species or system human; conditions: fixed spike RBD concentration, different concentrations of mCRP
Description: as §1
Having confirmed that mCRP can bind to the spike RBD, we further questioned whether mCRP can compete for the binding of the spike RBD to ACE2. […] First, in the spike RBD binding assay with ACE2, the spike RBD concentration was fixed and different concentrations of mCRP were added to test whether mCRP could inhibit the binding of the spike RBD to ACE2.

SARS-CoV-2 spike RBD [8] = experiment: Spike RBD-mCRP binding ELISA; conditions: for Kd: ELISA, spike RBD-immobilized microtiter wells, detection with mCRP-specific mAb 3H12, n = 3, mean ± S.E.M.
Description: The interactions of the spike-RBD with mCRP or CRP were also examined by enzyme-linked immunosorbent assay (ELISA) using mCRP/CRP-specific mAbs. Briefly, 100 μL of spike-RBD (1μg/mL) in Tris-buffered saline (TBS; 10 mM Tris, 140 mM NaCl, pH 7.4) was added per well to coat in 96-well microplates overnight at 4°C. The wells were then washed three times with TBS containing 0.02% Tween-20 for 5 min and blocked with 1% bovine serum albumin (BSA) in TBS for 1 h at 37°C. Next, mCRP was added and the plates were incubated for 1 h at 37°C. The color was developed by adding tetramethyl benzidine (TMB) to the wells and the color development was stopped with 1 M H2SO4.

CCn1cc(C(=O)O)c(=O)c2cc(F)c(N3CCNC(C)C3)c(F)c21 (stereo not shown) [lomefloxacin, Lomefloxacin, reference compound]
inhibition of the binding of the spike RBD to the cell surface ACE2 [1]: almost completely inhibited

ACE2
binding of spike RBD to ACE2 (SPR) (SARS-CoV-2 spike RBD [2]; check of biological activity of the spike RBD protein): high affinity

CBS (VCLHFYTELSSTR)
inhibition of the binding of the spike RBD to the cell surface ACE2 [1]: inhibit the binding of the spike RBD to the cell surface ACE2 in a concentration-dependent manner
inhibition of the binding of the spike RBD to mCRP (SPR) [3]: almost completely inhibited
inhibition of the binding of mCRP to the spike RBD (peptide competition assay) [4]: competitively inhibited
inhibition of the invasion of SARS-CoV-2 pseudovirus into Caco-2 cells (SARS-CoV-2 pseudovirus): partially inhibit
release of pro-inflammatory cytokines TNF-α and IL-6 [5]: did not induce the release of cytokines

amino acids 35−42 (VCLHFYTE)
inhibition of the binding of mCRP to the spike RBD (peptide competition assay) [4]: still inhibited

amino acids 39−47 (FYTELSSTR)
inhibition of the binding of mCRP to the spike RBD (peptide competition assay) [4]: lost the ability to inhibit

amino acids 41−47 (TELSSTR; UniProt P02741 59-65, looked up, fragment)
inhibition of the binding of mCRP to the spike RBD (peptide competition assay) [4]: lost the ability to inhibit

mCRP
half-life of blood-borne mCRP [6]: rather short
inhibition of the binding of the spike RBD to ACE2 (SPR) [7]: significantly inhibited
binding to the spike RBD (SPR) (SARS-CoV-2 spike RBD [2]; analyte 3.125-100 nM in fluid phase, spike RBD on CM5 chip, HEPES pH 7.4, 25°C): high affinity

pCRP
binding to the spike RBD (ELISA) (SARS-CoV-2 spike RBD [8]; spike RBD-immobilized wells, detection with pCRP-specific mAb 8D8, n = 3): did not bind

r-mCRP
Kd (SARS-CoV-2 spike RBD [8]): 24.4 ± 6.48 nM

u-mCRP
Kd (SARS-CoV-2 spike RBD [8]): 44.9 ± 6.27 nM
